Test results as given in publication PMC9774750, “Phenolic Fingerprinting and Bioactivity Profiling of Extracts and Isolated Compounds from Gypothamnium pinifolium Phil” (Antioxidants, 2022).
Entries after “also recorded” stand apart in the source; their conditions may differ.

Tests used:
[1] = ABTS•+ scavenging capacity; format: biochemical; details: mean ± SD, n = 3
Experimental: The ABTS^•+ radical scavenging assay was employed to determine the antioxidant activity of G. pinifolium conventional extracts; the radical solution was prepared 16 h before the measurements mixing 7 mM ABTS and 2.45 mM K2S2O8, and the solution was stored protected from the light at room temperature until the ABTS radical formation. For the assay, were mixed 250 µL of ABTS radical with an increasing concentration of sample or positive control (Trolox), and after half an hour, the absorbance was measured at 734 nm with a Synergy HTX microplate reader. The results are expressed as IC50 in µg of extract or Trolox per mL. The percentage of radical inhibition formula was employed for the ABTS inhibition calculation, then the IC50 was calculated through linear regression (concentration vs. inhibition percentage), and the data is reported as the mean ± SD.

Radical DPPH inhibition = format: biochemical; details: mean ± SD, n = 3
Experimental: The radical DPPH inhibition was performed by mixing thoroughly 150 µL of DPPH 400 μM with 50 µL of the sample or positive control, the 96-well microplate was kept protected from the light, and after half hour of reaction, the absorbance was recorded at 515 nm in a Synergy HTX microplate reader [13, 16]. All the measurements were performed in triplicate. The data are expressed as IC50 in µg of extract or standard per mL and reported as the mean ± SD. The determination of the IC50 was performed using linear regression. Methanol was employed as a negative control and BHT as a positive control. The percentage of DPPH radical inhibition was calculated according to the following equation: Percentage of radical inhibition (%)=(1−A−As/ADPPH)×100
A: is the absorbance of the mixture of extract and radical, As: is the absorbance of the methanol and extract, and ADDPH: is the absorbance of the radical work solution.

A549 cells (lung) = test: Antiproliferative activity (SRB), A549; format: cell-based, human; details: means ± SEM, n = 3
Experimental: (§1) Stock solutions in DMSO of the samples were prepared to dissolve the plant extract at a concentration of 100 mg/mL and the pure compounds 1–2 at 40 mM. For the antiproliferative activity tests, human solid tumor cells (100 µL) were seeded onto 96-well plates at a density of 2500 (A549, HBL-100, HeLa, and SW1573) or 5000 (T-47D, and WiDr) cells/well.
(§2) On the next day, the samples were added to the cell cultures in triplicate at decimal dilutions in the range 250 to 2.5 µg/mL for the extracts and 100 to 0.001 µM for compounds 1–2. Control cells were exposed to an equivalent amount of DMSO (0.25% v/v, negative control). Cells were incubated for an additional 48 h, after which time they were precipitated with 25 μL of ice-cold TCA (50% w/v) and fixed for 60 min at 4 °C [20]. Following sulforhodamine B staining, the optical density (OD) of each well was measured at 530 nm using a BioTek Power Wave XS absorbance microplate reader. Values were corrected with the background OD of the wells containing the control. […] The cell lines used in this study were kindly provided by Prof. Godefridus J. Peters (VUmc, Amsterdam, The Netherlands).

HeLa cells (cervix) = test: Antiproliferative activity (SRB), HeLa; format: cell-based; details: 48 h; for GI50 / TGI (total growth inhibition) against HeLa cells: SRB; for GI50: means ± SEM, n = 3; for LC50 (50% lethal concentration): read-out: LC50 against HeLa cells
Experimental: as §1, §2

HBL-100 cells (breast) = test: Antiproliferative activity (SRB), HBL-100; format: cell-based, human; details: means ± SEM, n = 3
Experimental: as §1, §2

WiDr cells (colon) = test: Antiproliferative activity (SRB), WiDr; format: cell-based, human; details: 48 h, means ± SEM, n = 3
Experimental: as §1, §2

T-47D cells (breast) = test: Antiproliferative activity (SRB), T-47D; format: cell-based, human; details: 48 h, means ± SEM, n = 3
Experimental: as §1, §2

SW1573 cells (lung) = test: Antiproliferative activity (SRB), SW1573; format: cell-based, human; details: means ± SEM, n = 3
Experimental: as §1, §2

[2] = target: T1, acetylcholinesterase (AChE) (Electrophorus electricus, UniProt O42275); test: biochemical; details: means ± SD, n = 3; read-out: AChE Inhibition IC50 (converted)
T1 construct: purchased Sigma-Aldrich Chem. Co. (St. Louis, MO, USA)
Experimental: (§3) The systems Arium 126 61316-RO and Arium 611 UV unit (Sartorius, Goettingen, Germany) were employed to get the ultra-pure water. […] Formic acid, methanol, ethyl acetate, and n-hexane of HPLC grade were obtained from Merk® (Santiago, Chile).
(§4) The Ellman method was used for the determination of the inhibitory potential against AChE and BChE. The enzymes were dissolved in Tris-HCl buffer 50 mM at pH 8.0 at the final concentration of 0.26 U/mL, and samples were prepared at 2 mg/mL and dissolved in buffer. […] Finally, to start the reaction, we added 20 µL of the substrate (acetyl-thiocholine iodide for AChE inhibition or butyryl-thiocholine chloride for BChE inhibition assays), and the absorbance was recorded at 405 nm for half an hour at 37 °C. The analysis was performed in triplicate, and the results are expressed as IC50.

[3] = target: T2, butyrylcholinesterase (BChE) (Equus caballus, UniProt P81908); test: biochemical; details: means ± SD, n = 3; read-out: BChE Inhibition IC50 (converted)
T2 construct: purchased Sigma-Aldrich Chem. Co. (St. Louis, MO, USA); host or cells: equine serum
Experimental: as §3, §4

intact rat aorta = test: Vascular reactivity, relaxation of PE pre-contracted aortic rings; design: species or system Sprague Dawley rats; details: 10^−9–10^−4 M, pre-contracted with 10^−6 M PE, three experiments
Experimental: The investigation was conducted according to the local ethics research committee of Universidad de Antofagasta, which ratified the experimental procedures (CEIC #275/2020 and CEIC #366/2022) for the use of a normotensive animal model (n = 3–6). The characteristics of the animals were as follows: male Sprague Dawley rats, six to eight weeks old, weighing between 170 and 200 g. The animals were kept at room temperature (22–25 °C) with 45–51% of humidity with ad libitum free-choice access to tap water and food and were randomized.
All the animals were euthanized by cervical dislocation and immediately proceeded to dissection of the aorta. Then the vascular tissue was arranged in organ baths that were filled with Krebs-Ringer bicarbonate solution pH 7.4 and remained at 37 °C with a constant flux of gas (95% O2 and 5% CO2). Once the tissue was stabilized and the integrity of the vascular endothelium was evaluated, the aortic rings were pre-contracted with 10^−6 M phenylephrine (PE), and after ten minutes, increasing concentrations of G. pinifolium extract, 2-nor-1,2-secolycoserone or ent-labda-8,13-E-diene-15-ol were added in the organ bath.
The data acquired from vascular reactivity assays were expressed as average ± standard error of the mean (SEM). One-way analysis of variance (ANOVA) followed by the Dunnett test was employed for statistical data analysis. […]

MCF-7 = tested on: MCF-7; design: method as in doi:10.1016/j.indcrop.2015.06.033; details: 24 h of drug exposure; read-out: IC50 cell growth inhibition MCF-7; cited from earlier work
[4] = tested on: A549, SW1573, HBL-100, T-47D, HeLa, WiDr; test: Antiproliferative activity (SRB), panel of six human solid tumor cell lines; format: cell-based; details: 48 h, read-out: GI50 range over all cell lines
Experimental: as §1, §2

HeLa cells = test: Label-free continuous live-cell imaging, apoptosis kinetics (LCDA); format: cell-based, human; details: 20 h exposure, 1 at 80 µM, 2 at 50 µM
Experimental: The imaging platform microscope CX-A (Nanolive SA, Lausanne, Switzerland) was used to get refractive indexes (RIs), creating a holotomographic 3D image of the cells. HeLa cells were employed at a density of 50,000 cells/well onto an IBIDI μ-Dish, 35 mm high (IBIDI, Gräfelfing, Munich, Germany) and treated with compounds 1 and 2 right before the acquisition of the images at a dose of 80 µM and 50 µM, respectively. Data obtained were transferred to FIJI (NIH, Bethesda, MD, USA) for image analysis. The LIVE Cell Death Assay (LCDA) software (Nanolive SA) was used for the analysis of the RIs and for obtaining apoptosis kinetics.

T1 sequence (O42275 24-633): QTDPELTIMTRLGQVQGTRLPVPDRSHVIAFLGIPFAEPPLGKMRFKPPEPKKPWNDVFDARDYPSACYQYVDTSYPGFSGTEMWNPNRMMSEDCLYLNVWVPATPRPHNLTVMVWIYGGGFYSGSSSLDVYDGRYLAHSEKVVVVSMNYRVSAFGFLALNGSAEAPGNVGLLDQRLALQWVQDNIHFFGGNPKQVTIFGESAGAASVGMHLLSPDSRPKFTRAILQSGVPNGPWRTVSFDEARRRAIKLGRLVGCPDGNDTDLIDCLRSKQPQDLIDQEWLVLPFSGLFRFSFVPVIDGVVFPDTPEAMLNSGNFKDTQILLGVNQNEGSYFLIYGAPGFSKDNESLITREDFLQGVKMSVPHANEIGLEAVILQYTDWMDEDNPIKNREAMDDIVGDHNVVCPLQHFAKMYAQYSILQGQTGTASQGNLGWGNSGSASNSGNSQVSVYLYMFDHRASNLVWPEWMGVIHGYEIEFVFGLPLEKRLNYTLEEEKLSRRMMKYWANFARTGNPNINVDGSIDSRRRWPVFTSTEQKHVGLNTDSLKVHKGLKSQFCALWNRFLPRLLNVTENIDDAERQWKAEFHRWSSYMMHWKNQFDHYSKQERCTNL
T2 sequence (P81908 whole entry): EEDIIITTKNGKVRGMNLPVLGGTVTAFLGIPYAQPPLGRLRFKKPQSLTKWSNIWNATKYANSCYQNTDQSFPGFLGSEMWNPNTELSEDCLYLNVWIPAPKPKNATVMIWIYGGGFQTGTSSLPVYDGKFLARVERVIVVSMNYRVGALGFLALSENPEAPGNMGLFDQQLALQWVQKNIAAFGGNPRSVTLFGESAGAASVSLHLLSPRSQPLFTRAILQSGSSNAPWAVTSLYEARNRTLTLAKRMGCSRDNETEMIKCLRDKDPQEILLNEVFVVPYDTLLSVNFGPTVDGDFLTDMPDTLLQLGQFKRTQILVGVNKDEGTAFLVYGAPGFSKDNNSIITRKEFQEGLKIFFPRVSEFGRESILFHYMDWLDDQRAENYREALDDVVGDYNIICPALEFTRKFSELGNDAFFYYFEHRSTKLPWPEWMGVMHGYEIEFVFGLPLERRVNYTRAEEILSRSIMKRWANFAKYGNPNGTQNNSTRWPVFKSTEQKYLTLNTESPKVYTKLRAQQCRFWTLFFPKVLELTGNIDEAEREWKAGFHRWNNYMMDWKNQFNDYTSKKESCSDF

With Cc1c(C)c2c(c(C)c1O)CCC(C)(C(=O)O)O2 (racemic) [Trolox, (±)-6-Hydroxy-2,5,7,8-tetramethylchromane-2-carboxylic acid] the “ABTS IC50” value [1] was 2.33 ± 0.11 μg per mL.

With Cc1cc(C(C)(C)C)c(O)c(C(C)(C)C)c1 [BHT] the “DPPH IC50” value (Radical DPPH inhibition) was 25.09 ± 0.55 μg per mL.

In the case of N.N.[Cl][Pt][Cl] [Cisplatin, reference compound], the GI50 (A549 cells (lung); 48 h) is reported as 4.9 ± 0.2 µM, the GI50 (HeLa cells (cervix)) is reported as 1.8 ± 0.5 µM and the GI50 (HBL-100 cells (breast); 48 h) is reported as 1.9 ± 0.2 µM. For the same molecule, the GI50 (WiDr cells (colon)) was 23 ± 4.3 µM, the GI50 (T-47D cells (breast)) was 17 ± 3.3 µM and the GI50 (SW1573 cells (lung); 48 h) was 2.7 ± 0.4 µM.

In the case of CC1=C(C(=O)CC(C)C)O[C@@H](CC(=O)c2c(C)cccc2O)[C@H]2[C@@H]1CC[C@@H]2C [Compound 1, 2-nor-1,2-secolycoserone], the GI50 (A549 cells (lung); Homo sapiens, A549, 48 h) is reported as 23 ± 7.2 µM, the “TGI (total growth inhibition) against HeLa cells” value (HeLa cells (cervix)) is reported as 82 ± 4.5 µM and the LC50 (50% lethal concentration) (HeLa cells (cervix); Homo sapiens, HeLa) is reported as over 100 µM. The GI50 (HeLa cells (cervix); Homo sapiens, HeLa) was 21 ± 4.5 µM, the IC50 [2] was 3.15 µM and the IC50 [3] was 29.2 µM. The GI50 (HBL-100 cells (breast); Homo sapiens, HBL-100, 48 h) was 31 ± 0.3 µM, the “relaxation effect in aortic rings” value (intact rat aorta) was “slight relaxation effect; also recorded: do not cause vascular relaxation” and the GI50 (WiDr cells (colon); Homo sapiens, WiDr) was 36 ± 4.1 µM. For the same molecule, the IC50 (MCF-7) was 15 µM, the GI50 (T-47D cells (breast); Homo sapiens, T47D) was 30 ± 0.1 µM and the GI50 (SW1573 cells (lung); Homo sapiens, SW1573, 48 h) was 25 ± 5.6 µM.

With CC1=C(CC/C(C)=C/CO)[C@]2(C)CCCC(C)(C)C2CC1 (stereo partly drawn) [Compound 2, ent-labda-8,13-E-diene-15-ol] the GI50 (A549 cells (lung); Homo sapiens, A549, 48 h) was 4.5 ± 0.1 µM, the “TGI (total growth inhibition) against HeLa cells” value (HeLa cells (cervix)) was 46 ± 0.3 µM and the LC50 (50% lethal concentration) (HeLa cells (cervix); Homo sapiens, HeLa) was 69 ± 27 µM. It also gave a GI50 (HeLa cells (cervix); Homo sapiens, HeLa) of 4.8 ± 0.3 µM, an IC50 [2] of 18.8 µM and an IC50 [3] of 63.1 µM. The GI50 [4] was 4.5 to 10 µM, the GI50 (HBL-100 cells (breast); Homo sapiens, HBL-100, 48 h) was 10 ± 1.3 µM and the “relaxation effect in aortic rings” value (intact rat aorta) was “slight relaxation effect; also recorded: do not cause vascular relaxation; also recorded: no vascular relaxation”. It also gave a GI50 (WiDr cells (colon); Homo sapiens, WiDr) of 9 ± 3.4 µM, a GI50 (T-47D cells (breast); Homo sapiens, T47D) of 5.1 ± 0.3 µM and a GI50 (SW1573 cells (lung); Homo sapiens, SW1573, 48 h) of 5.4 ± 0.6 µM. The “apoptosis kinetics (onset of cell death)” value (HeLa cells) was “induce death in HeLa cells earlier than coumarin 1”.
